In experiment [1] the target is T1, hTLR7 (Homo sapiens, UniProt Q9NYK1).
T1 construct: expressed in transfected cells; host or cells: HEK-Blue-hTLR7 cells (HEK293-derived SEAP reporter line)
T1 sequence (Q9NYK1 27-1049): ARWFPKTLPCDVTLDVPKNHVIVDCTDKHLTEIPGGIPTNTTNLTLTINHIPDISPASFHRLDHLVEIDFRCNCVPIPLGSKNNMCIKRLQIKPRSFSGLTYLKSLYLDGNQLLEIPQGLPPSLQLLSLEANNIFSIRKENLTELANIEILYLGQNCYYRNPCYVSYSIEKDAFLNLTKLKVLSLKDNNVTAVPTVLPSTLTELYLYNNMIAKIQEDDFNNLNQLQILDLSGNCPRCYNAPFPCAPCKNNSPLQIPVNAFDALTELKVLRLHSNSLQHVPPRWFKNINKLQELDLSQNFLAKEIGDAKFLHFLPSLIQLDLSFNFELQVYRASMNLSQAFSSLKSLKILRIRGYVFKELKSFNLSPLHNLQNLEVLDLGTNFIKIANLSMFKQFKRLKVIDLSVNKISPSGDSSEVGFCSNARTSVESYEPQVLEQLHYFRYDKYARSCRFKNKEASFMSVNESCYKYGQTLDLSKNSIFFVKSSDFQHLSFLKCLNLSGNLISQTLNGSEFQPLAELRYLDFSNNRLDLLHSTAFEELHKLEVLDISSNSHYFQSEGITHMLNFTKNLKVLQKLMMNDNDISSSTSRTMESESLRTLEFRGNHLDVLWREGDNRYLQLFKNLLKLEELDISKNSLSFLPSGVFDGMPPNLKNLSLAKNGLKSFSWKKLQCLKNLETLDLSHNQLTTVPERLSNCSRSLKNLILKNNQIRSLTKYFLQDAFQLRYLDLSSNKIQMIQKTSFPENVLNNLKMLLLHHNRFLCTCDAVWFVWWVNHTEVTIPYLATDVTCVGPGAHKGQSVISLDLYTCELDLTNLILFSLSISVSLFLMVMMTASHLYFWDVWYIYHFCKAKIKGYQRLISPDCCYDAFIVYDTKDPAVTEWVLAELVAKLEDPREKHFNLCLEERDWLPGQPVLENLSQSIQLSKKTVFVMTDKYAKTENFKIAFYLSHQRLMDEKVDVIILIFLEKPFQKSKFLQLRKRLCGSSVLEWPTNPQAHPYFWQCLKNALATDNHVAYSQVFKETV
Put plainly: TLR7 agonist screening protocol in vitro (HEK-Blue-hTLR7 reporter, QUANTI-Blue). Type of experiment: cell-based. The note with it: HEK-Blue-hTLR7 cells, 24 hours incubation, alkaline phosphatase OD650. How it is done: Test 1: TLR7 Agonist Screening Protocol In Vitro
1. Preparation for 96-well plate: Compounds are 3 folds serial diluted with DMSO by POD, start from 10 mM, 10 concentrations (column 2 to 11, duplicated), 1 μL DMSO per well. Take 1 μL of 5 mM R848 as positive control (column 12) and 1 μL of DMSO as negative control (column 1).
2. Harvest cells and adjust cell suspension to the density of 250,000 cells/ml.
3. 200 μL cells are seeded into the cell culture plate containing compounds with the cell density of 50,000 cells/well, the final DMSO concentration is 0.5%.
4. Incubate the plates containing the cells and compounds at 37° C., 5% CO2 for 24 hours.
5. After 24 hours' incubation, fetch 20 μL supernatant from each well to transfer to another transparent 96-well cell culture plate. Add 180 μL QUANTI-Blue to each well of the cell culture plate containing 20 μL supernatant, and incubate at 37° C., 5% CO2 for 1 hour.
6. After 1 hour, determine alkaline phosphatase levels in 20 μL supernatant by using ELIASA reading at OD650.
7. Data analysis by Prism software, EC50 of each compound was obtained.

In experiment [2] the test system is Female Balb/c mice. Put plainly: Induction of IFN-α and TNF-α following intranasal dosing in the mouse. The settings on record: serum, 2 h after single i.n. dose; for IFN-α Conc. (1 mM): 1 mM (0.1 mpk); for IFN-α Conc. (3 mM) / TNF-α Conc. (3 mM): 3 mM (0.3 mpk); for IFN-α Conc. (10 mM) / TNF-α Conc. (10 mM): 10 mM (1 mpk); for IFN-α Conc. (30 mM) / TNF-α Conc. (30 mM): 30 mM (3 mpk). In kind it is in vivo. How it is done:
Test 3: Assay for the Induction of Interferon-α (IFN-α) and Tumor Necrosis Factor-α (TNF-α) Following Intranasal Dosing in the Mouse
Female Balb/c mice (18-20 g) were anesthetized with isoflurane and then administered intranasally (20 μL in total between the nostrils) with compounds dissolved in saline with 0.2% Tween 80. After two hours, mice were euthanased by CO2 inhalation and blood samples were taken by cardiac puncher. Then blood samples were centrifuged and serum was collected. Serum samples were tested by ELISA with appropriate dilution according to the manufacturer's instructions. In this model, compounds could induce different IFN-α/TNF-α levels related to the dose of the compounds, while no IFN-α/TNF-α was detected in vehicle treated controls.

Structures can show the parent of a compound that is named as a salt.

Usually EC50 stands for the concentration giving half of the maximal effect. `CCCCOc1nc(N)c2[nH]c(C#N)c(CCCCCN3CCCCC3)c2n1` [Example 1, 4-Amino-2-butoxy-7-(5-(piperidin-1-yl)pentyl)-5H-pyrrolo[3,2-d]pyrimidine-6-carbonitrile formate] came in with an EC50 in experiment [1] of 1 to 100 nM. Also, in experiment [2], the “IFN-α Conc. (1 mM)” value came out at 500 pg/mL, the “IFN-α Conc. (3 mM)” value is given as 4500 pg/mL, the “TNF-α Conc. (3 mM)” value is listed as 100 pg/mL and the “IFN-α Conc. (10 mM)” value was 7500 pg/mL. In experiment [2], the “TNF-α Conc. (10 mM)” value is 300 pg/mL, the “IFN-α Conc. (30 mM)” value came out at 7000 pg/mL and the “TNF-α Conc. (30 mM)” value stood at 500 pg/mL. With `CCC[C@H](C)Oc1nc(N)c2[nH]c(C#N)c(CCCCCN3CCCCC3)c2n1` [Example 2, (S)-4-amino-(1-methylbutoxy)-7-(5-(piperidin-1-yl)pentyl)-5H-pyrrolo[3,2-d]pyrimidine-6-carbonitrile formate], the EC50 in experiment [1] is 1 to 100 nM. Still for that read-out and setting: the same measure for `CCCCOc1nc(N)c2[nH]c(C#N)c(CCCCN3CCCCC3)c2n1` [Example 3, 4-amino-2-butoxy-7-(4-(piperidin-1-yl)butyl)-5H-pyrrolo[3,2-d]pyrimidine-6-carbonitrile formate]: 1 to 100 nM; for `CCCCOc1nc(N)c2[nH]c(C#N)c(CCCCCN3CCOCC3)c2n1` [Example 4, 4-amino-2-butoxy-7-(5-morpholin-1-yl)pentyl)-5H-pyrrolo[3,2-d]pyrimidine-6-carbonitrile formate]: 1 to 100 nM; for `CCCCOc1nc(N)c2[nH]c(C#N)c(CCCCCN3CC4(COC4)C3)c2n1` [Example 5, 7-(5-(2-oxa-6-azaspiro[3.3]heptan-6-yl)pentyl)-4-amino-2-butoxy-5H-pyrrolo[3,2-d]pyrimidine-6-carbonitrile formate]: 1 to 100 nM. Same read-out and setting: the same measure for `CCCCOc1nc(N)c2[nH]c(C#N)c(CCCCCN3CCN(C)CC3)c2n1` [Example 6, 4-amino-2-butoxy-7-(5-(4-methylpiperazin-1-yl)pentyl)-5H-pyrrolo[3,2-d]pyrimidine-6-carbonitrile formate]: 1 to 100 nM; for `CCCCOc1nc(N)c2[nH]c(C#N)c(CCCCCN3CC4CC3CN4C)c2n1` (stereo not shown) [Example 7, 4-amino-2-butoxy-7-(5-(5-methyl-2,5-diazabicyclo[2.2.1]heptan-2-yl)pentyl)-5H-pyrrolo[3,2-d]pyrimidine-6-carbonitrile formate]: 250 to 500 nM. Still for that read-out and setting: the result for `CCCCOc1nc(N)c2[nH]c(C#N)c(CCCCCN(CC)CC)c2n1` [Example 8, 4-amino-2-butoxy-7-(5-(diethylamino)pentyl)-5H-pyrrolo[3,2-d]pyrimidine-6-carbonitrile formate] reads 1 to 100 nM. Take `CCCCOc1nc(N)c2[nH]c(C#N)c(CCCCCN3CCC(F)(F)CC3)c2n1` [Example 9, 4-amino-2-butoxy-7-(5-(4,4′-difluoro-1-piperidinyl)pentyl)-5H-pyrrolo[3,2-d]pyrimidine-6-carbonitrile formate]: the EC50 in experiment [1] is 100 to 250 nM.

`CCCCOc1nc(N)c2[nH]c(C#N)c(CCCCCN3CCN(C)CC3=O)c2n1` [Example 11, 4-amino-2-butoxy-7-(5-(4-methyl-2-oxopiperazin-1-yl)pentyl)-5H-pyrrolo[3,2-d]pyrimidine-6-carbonitrile formate] came in with an EC50 in experiment [1] of 100 to 250 nM. Same read-out and setting: the same measure for `CCCCOc1nc(N)c2[nH]c(C#N)c(CCCCCN3CCC[C@@H]3C(N)=O)c2n1` [Example 13]: 1 to 100 nM; for `CCCCOc1nc(N)c2[nH]c(C#N)c(CCCCCN3CCCC3C(=O)N(C)C)c2n1` (stereo not shown) [Example 14, 4-amino-2-butoxy-7-(5-(2-(N,N′-dimethylformamido)-pyrrolidin-1-yl)pentyl)-5H-pyrrolo[3,2-d]pyrimidin-6-nitrile formate]: 1 to 100 nM. The same measure, in the same setting: the same measure for `CCCCOc1nc(N)c2[nH]c(C#N)c(CCCCCN3CCCC3C(=O)N3CCN(C)CC3)c2n1` (stereo not shown) [Example 15, 4-amino-2-butoxy-7-(5-((2-(4-methylpiperazine-1-carbonyl)pyrrolidin-1-yl)pentyl)-5H-pyrrolo[3,2-d]pyrimidine-6-carbonitrile formate]: 100 to 250 nM; for `CCCCOc1nc(N)c2[nH]c(C#N)c(CCCCCN3CCCC3C(=O)NCC3CC3)c2n1` (stereo not shown) [Example 16, formate]: 100 to 250 nM; for `CCCCOc1nc(N)c2[nH]c(C#N)c(CCCCCN3CCCCC3C(N)=O)c2n1` (stereo not shown) [Example 17, hydrochloride]: 1 to 100 nM.

`CCCCOc1nc(N)c2[nH]c(C#N)c(CCCCCNC(C(N)=O)C(C)C)c2n1` (stereo not shown) [Example 18, 4-amino-2-butoxy-7-(5-((1-formamido-1′-isopropyl)amino)pentyl)-5H-pyrrolo[3,2-d]pyrimidine-6-carbonitrile hydrochloride]: the EC50 in experiment [1] is 1 to 100 nM. Same read-out and setting: the same measure for `CCCCOc1nc(N)c2[nH]c(C#N)c(CCCCCCN3CCCC3)c2n1` [Example 19, 4-amino-2-butoxy-7-(6-(tetrahydropyrrol-1-yl)hexyl)-5H-pyrrolo[3,2-d]pyrimidine-6-carbonitrile formate]: 1 to 100 nM; for `CCCCOc1nc(N)c2[nH]c(C#N)c(CCCCCN3CCCC3)c2n1` [Example 20, 4-amino-2-butoxy-7-(5-(tetrahydropyrrol-1-yl)pentyl)-5H-pyrrolo[3,2-d]pyrimidine-6-carbonitrile hydrochloride]: 1 to 100 nM.

In experiment [1], `CCCCOc1nc(N)c2[nH]c(C#N)c(CCCCCN3CC4CCC(C3)N4C)c2n1` [Example 21, 4-amino-2-butoxy-7-(5-(8-methyl-3,8-diazabicyclo[3.2.1]octan-3-yl)pentyl)-5H-pyrrolo[3,2-d]pyrimidine-6-carbonitrile formate] had an EC50 of 100 to 250 nM. Same read-out and setting: the same measure for `CCCCOc1nc(N)c2[nH]c(C#N)c(CCCCC3CCCCN3)c2n1` (stereo not shown) [Example 22, 4-amino-2-butoxy-7-(4-(piperidin-2-yl)butyl)-5H-pyrrolo[3,2-d]pyrimidine-6-carbonitrile formate]: 100 to 250 nM. On the same count and under the same terms, the same measure for `CCCCOc1nc(N)c2[nH]c(C#N)c(CCCCC3CCCCN3C(=O)NC)c2n1` (stereo not shown) [Example 23, 4-amino-2-butoxy-7-(4-(1-(1-N-methylcarbonyl)piperidin-2-yl)butyl)-5H-pyrrolo[3,2-d]pyrimidin-6-nitrile]: 100 to 250 nM; for `CCCCOc1nc(N)c2[nH]c(C#N)c(CCCC3CCN(C)CC3)c2n1` [Example 24, 4-amino-2-butoxy-7-(3-(1-methylpiperidin-4-yl)propyl)-5H-pyrrolo[3,2-d]pyrimidine-6-carbonitrile formate]: 1 to 100 nM. In experiment [1], `CCC[C@H](C)Oc1nc(N)c2[nH]c(=O)n(CCCCCN3CCCCC3)c2n1.Cl` [GSK-2245035, reference compound] showed an EC50 of 1 to 100 nM. Moreover, in experiment [2], the “IFN-α Conc. (1 mM)” value is reported as less than 100 pg/mL, the “IFN-α Conc. (3 mM)” value is given as 1000 pg/mL, the “TNF-α Conc. (3 mM)” value is recorded as less than 10 pg/mL and the “IFN-α Conc. (10 mM)” value is 3500 pg/mL. Moreover, in experiment [2], the “TNF-α Conc. (10 mM)” value worked out at 50 pg/mL, the “IFN-α Conc. (30 mM)” value came to 4500 pg/mL and the “TNF-α Conc. (30 mM)” value is recorded as 400 pg/mL.
